{
  "source": "patent US20050267166A1",
  "about": "“Continuous dosing regimen” (priority 2004, published 2005)",
  "key": {"HT-29 colon carcinoma": {"tested_on": "HT-29 colon carcinoma", "assay": "HT-29 colon flank xenograft model (staged)", "format": "in vivo, human", "description": "(§1) Following inoculation of tumor cells, tumors were passaged three times in mice before using the fragments to generate single cell suspensions. Multiple animals were used as donors. Single cell suspensions were generated by homogenizing the minced tumor tissue in RPMI 1640 media. Cell suspensions were washed three times to remove debris and other foreign materials. Viable cells were counted by trypan blue exclusion technique using a hemocytometer. Mice were injected subcutaneously with 0.5 mL of the cell suspension containing 1×10^6 cells.\nOn day 10, mice bearing established tumors were size matched and grouped at about 236 mm^3."}, "MX-1 breast cancer": {"tested_on": "MX-1 breast cancer", "assay": "human tumor xenograft in nude mice, MX-1", "format": "in vivo", "conditions": "Q5D × 5, 450 mg/kg/day"}, "LC-11 lung cancer": {"tested_on": "LC-11 lung cancer", "assay": "human tumor xenograft in nude mice, LC-11", "format": "in vivo", "conditions": "Q1D × 8, 150 mg/kg/day"}, "Calu-6 lung carcinoma": {"tested_on": "Calu-6 lung carcinoma", "assay": "Calu-6 NSCL flank xenograft model (staged)", "format": "in vivo, human", "description": "as §1\nOn day 10, mice bearing established tumors were size matched and grouped at about 233 mm^3."}, "WiDr colorectal cancer": {"tested_on": "WiDr colorectal cancer", "assay": "human tumor xenograft in nude mice, WiDr", "format": "in vivo", "conditions": "Q1D × 20, 100 mg/kg/day"}, "H-111 gastric cancer": {"tested_on": "H-111 gastric cancer", "assay": "human tumor xenograft in nude mice, H-111", "format": "in vivo", "conditions": "Q1D × 19, 80 mg/kg/day"}, "[1]": {"tested_on": "COLO320DM colorectal cancer", "assay": "human tumor xenograft in nude mice, COLO320DM", "format": "in vivo", "conditions": "Q1D × 19, 120 mg/kg/day"}, "MiaPaCa-2 pancreatic": {"tested_on": "MiaPaCa-2 pancreatic", "assay": "MiaPaCa-2 orthotopic tumor model", "format": "in vivo, human", "conditions": "for % T/C: orthotopic, d 1-5, 11-15", "description": "(2-((4-hydroxyphenyl)amino)pyrid-3-yl)-4-methoxybenzenesulfonamide inhibited the growth of a variety of human tumor xenografts that were allowed to grow into established tumors prior to the initiation of treatment. As summarized below, activity was seen against established tumors derived from colon, breast and lung carcinomas. (2-((4-hydroxyphenyl)amino)pyrid-3-yl)-4-methoxybenzenesulfonamide was also active against a human pancreatic tumor xenograft grown in the orthotopic site."}, "[2]": {"tested_on": "MDA-MB-468 breast carcinoma", "assay": "MDA-MB-468 breast flank xenograft model (staged)", "format": "in vivo, human", "description": "as §1\nFor determination of the efficacy of N-(2-((4-hydroxyphenyl)amino)pyrid-3-yl)-4-methoxybenzenesulfonamide in the MDA-MB-468 Breast Flank Xenograft model, tumor cells derived from serially passaged tumor fragments were inoculated subcutaneously in female nude mice on day 0. On day 10, mice bearing established tumors were size matched and grouped at about 231 mm^3."}, "C26 colon tumors": {"tested_on": "C26 colon tumors", "assay": "C26 colon tumors grown in the flank of CDF-1 mice", "format": "in vivo"}, "H-154 gastric cancer": {"tested_on": "H-154 gastric cancer", "assay": "human tumor xenograft in nude mice, H-154", "format": "in vivo", "conditions": "Q5D × 5, 300 mg/kg/day"}, "[3]": {"assay": "pharmacokinetics in cancer subjects, single dose and 5-day repeated dose", "format": "in vivo, human", "description": "(2-((4-hydroxyphenyl)amino)pyrid-3-yl)-4-methoxybenzenesulfonamide was evaluated in 57 cancer subjects in single dose (16 subjects) and 5-day repeated dose regimens (41 subjects). The doses administered in the single dose segment were 80 to 480 mg/m^2/day. In the 5-day repeated dose regimen (2-((4-hydroxyphenyl)amino)pyrid-3-yl)-4-methoxybenzenesulfonamide was given at 30 to 240 mg/m^2/day for a single cycle. […] Adverse drug reactions from the single dose and 5-day repeated dose segments included nausea and vomiting, diarrhea, epigastric pain, ileus and evidence of peripheral neuropathy. For the single dose segment, the dose limiting toxicity (DLT) was Grade 3 peripheral neuropathy in 1 of 5 subjects at 480 mg/m^2/day. In the 5-day repeated dose regimen the dose limiting toxicities were Grade 3 peripheral neuropathy in 1 of 4 subjects at 210 mg/m^2/day and Grade 4 intestinal paralysis in 1 of 4 subjects at 210 mg/m^2/day and in 1 of 6 subjects at 240 mg/m^2/day."}, "[4]": {"conditions": "oral 75 mg/kg/d QD, d 10-14, 20-24"}, "[5]": {"conditions": "oral 100 mg/kg/d QD, d 10-14, 20-24"}},
  "data": [
    {"smiles": "COc1ccc(S(=O)(=O)Nc2cccnc2Nc2ccc(O)cc2)cc1", "note": "[ABT-751, N-(2-((4-hydroxyphenyl)amino)pyrid-3-yl)-4-methoxybenzenesulfonamide]", "values": [
      {"measurement": "antitumor activity as single agent", "setting": "HT-29 colon carcinoma; 100 and 75 mg/kg/day, (5 days on/5 days off)×2", "result": "significant antitumor activity"},
      {"measurement": "response in combination with 5-fluorouracil", "setting": "HT-29 colon carcinoma; in combination with 5-fluorouracil at 30 mg/kg/day, higher doses", "result": "additive responses"},
      {"measurement": "% T/C", "setting": "HT-29 colon carcinoma; oral 50 mg/kg/d QD, d 1-21", "result": 55, "unit": "%"},
      {"measurement": "% ILS", "setting": "HT-29 colon carcinoma; [4]", "result": 50, "unit": "%"},
      {"measurement": "% T/C", "setting": "HT-29 colon carcinoma; [4]", "result": 43, "unit": "%"},
      {"measurement": "% T/C", "setting": "HT-29 colon carcinoma; [5]", "result": 28, "unit": "%"},
      {"measurement": "T/C (%)", "setting": "MX-1 breast cancer", "result": 21, "unit": "%"},
      {"measurement": "T/C (%)", "setting": "LC-11 lung cancer", "result": 93, "unit": "%"},
      {"measurement": "antitumor activity as single agent", "setting": "Calu-6 lung carcinoma; 100 and 75 mg/kg/day, (5 day on/5 day off)×2", "result": "significant antitumor activity"},
      {"measurement": "response in combination with cisplatin", "setting": "Calu-6 lung carcinoma; in combination with cisplatin", "result": "greater than additive responses"},
      {"measurement": "% T/C", "setting": "Calu-6 lung carcinoma; oral 50 mg/kg/d QD, d 1-21", "result": 54, "unit": "%"},
      {"measurement": "% ILS", "setting": "Calu-6 lung carcinoma; [4]", "result": 58, "unit": "%"},
      {"measurement": "% T/C", "setting": "Calu-6 lung carcinoma; [4]", "result": 50, "unit": "%"},
      {"measurement": "% T/C", "setting": "Calu-6 lung carcinoma; [5]", "result": 37, "unit": "%"},
      {"measurement": "T/C (%)", "setting": "WiDr colorectal cancer", "result": 22, "unit": "%"},
      {"measurement": "T/C (%)", "setting": "H-111 gastric cancer", "result": 36, "unit": "%"},
      {"measurement": "T/C (%)", "setting": "[1]", "result": 42, "unit": "%"},
      {"measurement": "antitumor activity in combination with gemcitabine compared to single agent alone", "setting": "MiaPaCa-2 pancreatic; in combination with gemcitabine, MiaPaCa2 pancreatic xenograft", "result": "increase in antitumor activity"},
      {"measurement": "% T/C", "setting": "MiaPaCa-2 pancreatic; oral 75 mg/kg/d QD", "result": 79, "unit": "%"},
      {"measurement": "% T/C", "setting": "MiaPaCa-2 pancreatic; oral 100 mg/kg/d QD", "result": 56, "unit": "%"},
      {"measurement": "antitumor activity as single agent", "setting": "[2]; 100 and 75 mg/kg/day (5 days on/5 days off)×2, 50 mg/kg/day daily", "result": "dose-dependent antitumor activity"},
      {"measurement": "response in combination with docetaxel", "setting": "[2]; in combination with docetaxel at 33.3 mg/kg/day", "result": "greater than additive responses"},
      {"measurement": "antitumor activity against C26 colon tumors", "setting": "C26 colon tumors; 5-day schedule", "result": "only marginally active"},
      {"measurement": "antitumor activity against C26 colon tumors", "setting": "C26 colon tumors; extended dosing", "result": "significant antitumor response"},
      {"measurement": "T/C (%)", "setting": "H-154 gastric cancer", "result": 71, "unit": "%"},
      {"measurement": "half-life", "setting": "[3]; human, plasma, cancer subjects, single dose and 5-day repeated dose, read-out: elimination half-life", "result": "4 to 16", "unit": "h"},
      {"measurement": "AUC versus dose", "setting": "[3]; range of 30 to 480 mg/m^2/day", "result": "increased proportionally with dose"}
    ]}
  ]
}
